Key:
[1] = test system: non-transgenic soybean plants; test: Greenhouse post-V3 spray of auxin-like herbicides, visual injury, non-transgenic line; assay type: in vivo
Protocol: (§1) An analysis was carried out to determine whether soybean plants having DMO-encoding polynucleotide could deactivate other auxin-like herbicides in addition to dicamba. This was carried out by applying various concentrations of commercially available formulations of other auxin-like herbicides such as 2,4-D (Helena, Collierville, Tenn.), MCPA (Agriliance, St. Paul, Minn.), triclopyr (GARLON 3A; Dow Elanco, Indianapolis, Ind.), clopyralid (STINGER; Dow Elanco, Indianapolis, Ind.), picloram (TORDON 22K; Dow Elanco, Indianapolis, Ind.), or Banvel or Clarity (BASF, Raleigh, N.C.) to DMO containing plant tissues or plants.
(§2) Transgenic soybean plants were obtained by Agrobacterium-mediated transformation of soybean explants with a DMO-encoding polynucleotide as described above for the events designated Events 1-4. A non-transgenic line was used as a control. Non-transgenic and transgenic soybean seeds were planted into 3,5-inch square plastic pots containing Redi-earth™ (Scotts-Sierra Horticultural Products Co., Marysville, Ohio). The pots were placed on capillary matting in 35 inch×60 inch fiberglass watering trays for overhead and/or sub-irrigation for the duration of the test period so as to maintain optimum soil moisture for plant growth. The pots were fertilized with Osmocote (14-14-14 slow release; Scotts-Sierra Horticultural Products Co., Marysville, Ohio) at the rate of 100 gm/cu.ft. to sustain plant growth for the duration of greenhouse trials. The plants were grown in greenhouses at 27°/21° C. day/night temperature, with relative humidity between 25%-75% to simulate warm season growing conditions of late spring. A 14 h minimum photoperiod was provided with supplemental light at about 600 μE as needed.
(§3) All herbicide applications were made with the track sprayer using a Teejet 9501E flat fan nozzle (Spraying Systems Co, Wheaton, Ill.) with air pressure set at a minimum of 24 psi (165 kpa). The spray nozzle was kept at a height of about 16 inches above the top of plant material for spraying. The spray volume was 10 gallons per acre or 93 liters per hectare. Applications were made when plants had reached V-3 stage.
(§4) All treated plants in greenhouse trials were visually assessed at about 4, 14, 18, and 21 days after treatment (DAT) for injury on a scale of 0 to 100 percent relative to untreated control plants, with zero representing “no” injury and 100% representing “complete” injury or death. Data were collected using a palm top computer and analyzed using standard statistical methods.

[2] = test system: transgenic soybean plants with DMO-encoding polynucleotide, Event 4; test: Greenhouse post-V3 spray of auxin-like herbicides, visual injury, transgenic Event 4; assay type: in vivo
Protocol: as §1, §2, §3, §4

[3] = test system: transgenic soybean plants having DMO-encoding polynucleotide; test: Greenhouse injury trial, overall statements for transgenic soybean; assay type: in vivo; details: for assessment of application rate: 280 g ae/ha, transgenic soybean; for tolerance of transgenic soybean relative to the non-transgenic line: greenhouse trial, post-V3 application
Protocol: as §1, §2, §3, §4

[4] = test system: transgenic soybean plants with DMO-encoding polynucleotide, Event 2; test: Greenhouse post-V3 spray of auxin-like herbicides, visual injury, transgenic Event 2; assay type: in vivo
Protocol: as §1, §2, §3, §4

[5] = test system: transgenic soybean plants with DMO-encoding polynucleotide, Event 3; test: Greenhouse post-V3 spray of auxin-like herbicides, visual injury, transgenic Event 3; assay type: in vivo
Protocol: as §1, §2, §3, §4

[6] = test system: transgenic soybean plants with DMO-encoding polynucleotide, Event 1; test: Greenhouse post-V3 spray of auxin-like herbicides, visual injury, transgenic Event 1; assay type: in vivo
Protocol: as §1, §2, §3, §4

[7] = test system: soybean explants inoculated with Agrobacterium harboring pMON73691 (DMO and GFP genes); test: Selection of pMON73691-inoculated soybean explants with 2,4-D or dicamba in liquid medium, GFP+ buds; assay type: cell-based; details: for # Explants w/GFP + buds/young shoots at 48DAI: 375 explants inoculated, pMON73691
Protocol: Freshly isolated soybean explants (mature embryo axes without cotyledons) were inoculated with Agrobacterium strain ABI harboring pMON73691 (containing DMO and GFP genes). After 3-d co-culture with Agrobacterium at 23° C. and a photoperiod of 16-h light and 8-h dark, the explants were cultured in liquid delay medium which contained modified woody plant medium supplemented with 5 mg/l BAP, 200 mg/l carbenicillin, 200 mg/l cefotaxime and 100 mg/l ticarcillin. The explants were in the delay medium for 4 days. They were then transferred to liquid selection medium in PLANTCONs. The selection medium was the same as the delay medium except of addition of various levels of 2,4-D (0.01, 0.1, 1.0 or 2.0 mg/L) or 0.01 mg/L dicamba as shown in Table 9 below. Each PLANTCON contained 60 ml of the selection medium and one piece of foam sponge with 5 slits. Twenty-five explants were evenly inserted into the slits. The cultures were maintained at 28° C. and a photoperiod of 16-h light and 8-h dark, and were examined periodically under a […] equipped for detecting GFP expressing tissues.

Compound	% injury relative to un-treated controls ([1]; 280 g ae/ha, 14 DAT) [%]	% injury relative to un-treated controls ([1]; 561 g ae/ha, 14 DAT) [%]	% injury relative to un-treated controls ([1]; 1120 g ae/ha, 14 DAT) [%]	% injury relative to un-treated controls ([2]; 280 g ae/ha, 14 DAT) [%]	% injury relative to un-treated controls ([2]; 561 g ae/ha, 14 DAT) [%]	% injury relative to un-treated controls ([2]; 1120 g ae/ha, 14 DAT) [%]	assessment of application rate [3]	% injury relative to un-treated controls ([4]; 280 g ae/ha, 14 DAT) [%]	% injury relative to un-treated controls ([4]; 561 g ae/ha, 14 DAT) [%]	% injury relative to un-treated controls ([4]; 1120 g ae/ha, 14 DAT) [%]	% injury relative to un-treated controls ([5]; 280 g ae/ha, 14 DAT) [%]	% injury relative to un-treated controls ([5]; 561 g ae/ha, 14 DAT) [%]	% injury relative to un-treated controls ([5]; 1120 g ae/ha, 14 DAT) [%]	% injury relative to un-treated controls ([6]; 280 g ae/ha, 14 DAT) [%]	% injury relative to un-treated controls ([6]; 561 g ae/ha, 14 DAT) [%]	% injury relative to un-treated controls ([6]; 1120 g ae/ha, 14 DAT) [%]	% injury relative to un-treated controls ([1]; 280 g ae/ha, 21 DAT) [%]	% injury relative to un-treated controls ([1]; 561 g ae/ha, 21 DAT) [%]	% injury relative to un-treated controls ([1]; 1120 g ae/ha, 21 DAT) [%]	% injury relative to un-treated controls ([2]; 280 g ae/ha, 21 DAT) [%]	also measured
O=C(O)c1nc(Cl)ccc1Cl [Clopyralid, 3,6-dichloro-2-pyridinecarboxylic acid]	99.3	100.0	100.0	99.7	100.0	100.0	too stringent	98.2	99.7	100.0	99.3	100.0	100.0	99.2	100.0	100.0	–	–	–	–	–
O=C(O)COc1ccc(Cl)cc1Cl [2,4-D, (2,4-dichlorophenoxy)acetic acid]	–	–	–	–	–	–	–	–	–	–	–	–	–	–	–	–	86.8	100.0	100.0	45.8	% injury relative to un-treated controls ([2]; 561 g ae/ha, 21 DAT): 84.2%; % injury relative to un-treated controls ([2]; 1120 g ae/ha, 21 DAT): 100.0%; tolerance of transgenic soybean relative to the non-transgenic line [3]: tolerance; % injury relative to un-treated controls ([4]; 280 g ae/ha, 21 DAT): 64.2%; % injury relative to un-treated controls ([4]; 561 g ae/ha, 21 DAT): 94.7%; % injury relative to un-treated controls ([4]; 1120 g ae/ha, 21 DAT): 100.0%; % injury relative to un-treated controls ([5]; 280 g ae/ha, 21 DAT): 40.0%; % injury relative to un-treated controls ([5]; 561 g ae/ha, 21 DAT): 85.0%; % injury relative to un-treated controls ([5]; 1120 g ae/ha, 21 DAT): 100.0%; % injury relative to un-treated controls ([6]; 280 g ae/ha, 21 DAT): 58.3%; % injury relative to un-treated controls ([6]; 561 g ae/ha, 21 DAT): 75.0%; % injury relative to un-treated controls ([6]; 1120 g ae/ha, 21 DAT): 100.0%; explant response observed ([7]; 0.01 or 0.1 mg/L in selection medium): extensive shoot growth; explant response observed ([7]; 1 or 2 mg/L in selection medium): Extensive callus development; # Explants w/GFP + buds/young shoots at 48DAI ([7]; selective agent 0.01 mg/L): 33; # Explants w/GFP + buds/young shoots at 48DAI ([7]; selective agent 0.1 mg/L): 19; # Explants w/GFP + buds/young shoots at 48DAI ([7]; selective agent 1 mg/L): 4; # Explants w/GFP + buds/young shoots at 48DAI ([7]; selective agent 2 mg/L): 0
Cc1cc(Cl)ccc1OCC(=O)O [MCPA, (4-chloro-2-methylphenoxy)acetic acid]	–	–	–	–	–	–	–	–	–	–	–	–	–	–	–	–	93.0	98.3	100.0	88.3	% injury relative to un-treated controls ([2]; 561 g ae/ha, 21 DAT): 98.8%; % injury relative to un-treated controls ([2]; 1120 g ae/ha, 21 DAT): 100.0%; tolerance of transgenic soybean relative to the non-transgenic line [3]: tolerance; % injury relative to un-treated controls ([4]; 280 g ae/ha, 21 DAT): 55.0%; % injury relative to un-treated controls ([4]; 561 g ae/ha, 21 DAT): 95.0%; % injury relative to un-treated controls ([4]; 1120 g ae/ha, 21 DAT): 99.7%; % injury relative to un-treated controls ([5]; 280 g ae/ha, 21 DAT): 55.0%; % injury relative to un-treated controls ([5]; 561 g ae/ha, 21 DAT): 95.8%; % injury relative to un-treated controls ([5]; 1120 g ae/ha, 21 DAT): 100.0%; % injury relative to un-treated controls ([6]; 280 g ae/ha, 21 DAT): 72.5%; % injury relative to un-treated controls ([6]; 561 g ae/ha, 21 DAT): 99.3%; % injury relative to un-treated controls ([6]; 1120 g ae/ha, 21 DAT): 100.0%
(2,4,5-trichlorophenoxy)acetic acid [Triclopyr]	86.7	97.3	98.7	90.8	98.0	99.2	too stringent	86.7	98.7	99.3	86.7	94.0	96.3	88.3	95.7	99.3	–	–	–	–	–
Nc1c(Cl)c(Cl)nc(C(=O)O)c1Cl [Picloram, 4-amino-3,5,6-trichloro-2-pyridinecarboxylic acid]	99.3	100.0	100.0	99.3	100.0	100.0	too stringent	99.3	100.0	100.0	99.3	99.7	100.0	99.7	100.0	100.0	–	–	–	–	–
